Test results reported in patent publication US20230020663A1, “SULFONAMIDE INHIBITORS AS CTPS1 INHIBITORS” (Step Pharma S.A.S., priority 2019, published 2023).

These compounds were tested on human CTPS1 versus CTPS2 (assay: Human CTPS1 versus CTPS2 selectivity assessment by RapidFire/MS analysis). Conditions: Table 26; RapidFire/MS IC50 ratio.
Format: biochemical
Procedure: Human CTPS1 versus CTPS2 Selectivity Assessment by RapidFire/MS Analysis.
The enzyme inhibitory activities against each target isoform of interest may be determined for the compounds of the invention using an optimised RapidFire high-throughput mass spectrometry (RF/MS) assay format. RF/MS assays for both human CTPS1 and CTPS2 may be performed in assay buffer consisting of 50 mM HEPES (Merck), 20 mM MgCl2, 5 mM KCl, 1 mM DTT, 0.01% Tween-20, pH to 8.0 accordingly. Human full-length active C-terminal FLAG-His-tag CTPS1 (UniProtKB—P17812, CTPS[1-591]-[…]) may be obtained from Proteros biostructures GmbH. Human full length active C-terminal FLAG-His-Avi tagged CTPS2 (UniProtKB-Q9NRF8, CTPS2 [1-586]-[…]) may be obtained from Harker Bio.
Human CTPS (1 or 2) protein may be prepared in 1× assay buffer to the final working protein concentration required for the reaction. A 2 uL volume per well of 2×CTPS (1 or 2) protein may be mixed with 40 nL of compound using acoustic (ECHO) delivery and incubated for 10 minutes at 25° C. Each isoform enzymatic reaction may be subsequently initiated by addition of 2 uL per well of a 2× substrate mix in assay buffer. For hCTPS1: ATP (0.3 mM), UTP (0.2 mM), GTP (0.07 mM) and L-glutamine (0.1 mM). For hCTPS2: ATP (0.1 mM), UTP (0.04 mM), GTP (0.03 mM) and L-glutamine (0.1 mM). Each mixture may be incubated for an appropriate amount of time per isoform within the determined linear phase of the reaction at 25′C. A 60 uL volume of stop solution (1% formic acid with 0.5 uM ^13C9-^15N3-CTP in H2O) may be added and the plate immediately heat-sealed and centrifuged for 10 minutes at 4,000 rpm. Following centrifugation, plates may be loaded onto the Agilent RapidFire microfluidic solid phase extraction system coupled to an API4000 triple quadrupole mass spectrometer (RF/MS) for analysis.
In all cases, the enzyme converts UTP to CTP. Highly specific and sensitive multiple reaction monitoring (MRM) MS methods may be optimised for the detection of the enzymatic reaction product, CTP, and the stable isotope labelled product standard ^13C9-^15N3-CTP. Readout for data analysis may be calculated as the ratio between the peak area of the product CTP and the internal standard ^13C9-^15N3-CTP. For data reporting, the following equation may be used: […]
For each screening plate, the means of the negative (DMSO) and positive control values were used for the calculation of the respective assay window (S/B) and Z′ values. The median of the respective control values was used for calculation of percent inhibition according to the following equation: […]
Percentage inhibition was then plotted against compound concentration, and the 50% inhibitory concentration (IC50) was determined from the resultant concentration-response curve.
Fold selectivity between CTPS1 and CTPS2 was subsequently calculated according to the following equation: […]

SMILES | Selectivity (fold selectivity between CTPS1 and CTPS2)
CCOc1cncc(-c2ccc(NC(=O)C(C)(C)c3cncc(NS(=O)(=O)C4CC4)n3)nc2)n1 [Example P195] | +++ (>60 fold (+++))
CC(C)Oc1cncc(-c2ccc(C(=O)NC(C)(C)c3cncc(NS(=O)(=O)C4CC4)n3)c(F)c2)n1 [Example P221] | + (2-30 fold (+))
CCOc1cncc(-c2ccc(NC(=O)C(C)(C)c3cncc(NS(=O)(=O)C4CC4)n3)cc2)n1 [Example P196] | +++ (>60 fold (+++))
CCOc1cncc(-c2ccc(NC(=O)C3(c4ccnc(NS(=O)(=O)C5CC5)n4)CCCC3)cc2)n1 [Example P2, 1-(2-(Cyclopropanesulfonamido)pyrimidin-4-yl)-N-(4-(6-ethoxypyrazin-2-yl)phenyl)cyclopentanecarboxamide] | +++ (>60 fold (+++))
CCOc1cncc(-c2ccc(NC(=O)C(CC)c3cccc(NS(=O)(=O)C4CC4)n3)nc2)n1 (stereo not shown) [Example P188] | ++ (>30-60 fold (++))
CCC(C(=O)Nc1ccc(-c2cncc(OC)n2)cc1F)c1ccnc(NS(=O)(=O)C2CC2)n1 (stereo not shown) [Example P95] | + (2-30 fold (+))
CCOc1cncc(-c2ccc(NC(=O)C(CCOC)c3ccnc(NS(=O)(=O)C4CC4)n3)nc2)n1 (stereo not shown) [Example P145] | +++ (>60 fold (+++))
CCC(C(=O)Nc1ccc(-c2cncc(OC(C)C)n2)cn1)c1ccnc(NS(=O)(=O)C2CC2)n1 (stereo not shown) [Example P89] | +++ (>60 fold (+++))
CC(C)(C(=O)Nc1ccc(-c2cncc(C3CC3)n2)cc1F)c1ccnc(NS(=O)(=O)C2CC2)n1 [Example P128] | + (2-30 fold (+))
CCC(C(=O)Nc1ccc(-c2cncc(C(F)(F)F)n2)cc1)c1ccnc(NS(=O)(=O)C2CC2)n1 (stereo not shown) [Example P103] | + (2-30 fold (+))
CCOc1cncc(-c2ccc(NC(=O)C3(c4ccnc(NS(=O)(=O)C5CC5)n4)CC3)cc2)n1 [Example P83] | +++ (>60 fold (+++))
CCOc1cncc(-c2ccc(C(=O)NCc3ccnc(NS(=O)(=O)C4CC4)n3)cc2)n1 [Example P118] | +++ (>60 fold (+++))
CCC(C(=O)Nc1ncc(-c2cncc(OC)n2)cc1F)c1ccnc(NS(=O)(=O)C2CC2)n1 (stereo not shown) [Example P158] | + (2-30 fold (+))
CCOc1cncc(-c2ccc(C(=O)NC(CC)c3ccnc(NS(=O)(=O)C4CC4)n3)c(F)c2)n1 (stereo not shown) [Example P216] | +++ (>60 fold (+++))
CCOc1cncc(-c2ccc(NC(=O)C(CC)c3ccnc(NS(=O)(=O)C4CC4)n3)cc2)n1 (stereo not shown) [Example P105, 2-(2-(Cyclopropanesulfonamido)pyrimidin-4-yl)-N-(4-(6-ethoxypyrazin-2-yl)phenyl)butanamide] | ++ (>30-60 fold (++))
CCOc1cncc(-c2ccc(NC(=O)C(CC)c3cccc(NS(=O)(=O)C4CC4)n3)cc2)n1 (stereo not shown) [Example P191] | ++ (>30-60 fold (++))

SMILES | Selectivity (fold selectivity between CTPS1 and CTPS2)
CC(C)Oc1cncc(-c2ccc(NC(=O)C(C)(C)c3ccnc(NS(=O)(=O)C4CC4)n3)c(F)c2)n1 [Example P39] | + (2-30 fold (+))
CCOc1cncc(-c2ccc(NC(=O)C(F)(CC)c3cncc(NS(=O)(=O)C4CC4)n3)nc2)n1 (single isomer, unassigned) [Example P206] | +++ (>60 fold (+++))
CCOc1cncc(-c2ccc(NC(=O)C3(c4ccnc(NS(=O)(=O)C5CC5)n4)CCOCC3)nc2)n1 [Example P115, 4-(2-(Cyclopropanesulfonamido)pyrimidin-4-yl)-N-(5-(6-ethoxypyrazin-2-yl)pyridin-2-yl)tetrahydro-2H-pyran-4-carboxamide] | +++ (>60 fold (+++))
CCOc1cncc(-c2cnc(NC(=O)C(CC)c3ccnc(NS(=O)(=O)C4CC4)n3)c(F)c2)n1 (stereo not shown) [Example P162] | ++ (>30-60 fold (++))
CCOc1cncc(-c2ccc(NC(=O)C(C)(C)c3ccnc(NS(=O)(=O)C4CC4)n3)c(F)c2)n1 [Example P38] | + (2-30 fold (+))
CCOc1cncc(-c2ccc(NC(=O)C(F)(CC)c3ccnc(NS(=O)(=O)C4CC4)n3)nc2)n1 (single isomer, unassigned) [Example P114, 2-(2-(cyclopropanesulfonamido)pyrimidin-4-yl)-N-(5-(6-ethoxypyrazin-2-yl)pyridin-2-yl)-2-fluorobutanamide] | +++ (>60 fold (+++))
CCOc1cncc(-c2ccc(NC(=O)C(C)(OC)c3cncc(NS(=O)(=O)C4CC4)n3)nc2)n1 (stereo not shown) [Example P205a] | +++ (>60 fold (+++))
CCOc1cncc(-c2ccc(NC(=O)C(C)(CC)c3ccnc(NS(=O)(=O)C4CC4)n3)nc2)n1 (stereo not shown) [Example P163] | +++ (>60 fold (+++))
CCOc1cncc(-c2ccc(NC(=O)C(F)(CC)c3ccnc(NS(=O)(=O)C4CC4)n3)nc2)n1 (racemic) [Example P112, 2-(2-(Cyclopropanesulfonamido)pyrimidin-4-yl)-N-(5-(6-ethoxypyrazin-2-yl)pyridin-2-yl)-2-fluorobutanamide] | ++ (>30-60 fold (++))
CC(C)(C(=O)Nc1ccc(-c2cncc(C3CC3)n2)cn1)c1ccnc(NS(=O)(=O)C2CC2)n1 [Example P125] | ++ (>30-60 fold (++))
CCOc1cncc(-c2ccc(NC(=O)C(OC)c3ccnc(NS(=O)(=O)C4CC4)n3)cc2)n1 (stereo not shown) [Example P164] | + (2-30 fold (+))
CCOc1cncc(-c2ccc(NC(=O)C(F)(CC)c3cncc(NS(=O)(=O)C4CC4)n3)nc2)n1 (single isomer, unassigned) [Example P207] | + (2-30 fold (+))
CCOc1cncc(-c2cnc(NC(=O)C(CC)c3ccnc(NS(=O)(=O)C4CC4)n3)c(C)c2)n1 (stereo not shown) [Example P155] | + (2-30 fold (+))
CCOc1cncc(-c2ccc(NC(=O)C(F)(CC)c3cncc(NS(=O)(=O)C4CC4)n3)nc2)n1 (stereo not shown) [Example P200] | ++ (>30-60 fold (++))
CC(C)Oc1cncc(-c2ccc(NC(=O)Cc3ccnc(NS(=O)(=O)C4CC4)n3)cc2)n1 [Example P21] | ++ (>30-60 fold (++))
CCOc1cncc(-c2ccc(NC(=O)Cc3ccnc(NS(=O)(=O)C4CC4)n3)cc2)n1 [Example P18, 2-(2-(Cyclopropanesulfonamido)pyrimidin-4-yl)-N-(4-(6-ethoxypyrazin-2-yl)phenyl)acetamide] | ++ (>30-60 fold (++))

Same assay, conditions: Table 27; RapidFire/MS IC50 ratio

SMILES | Selectivity (fold selectivity between CTPS1 and CTPS2)
CCOc1cncc(-c2ccc(NC(=O)C3(c4ccnc(NS(=O)(=O)C5CC5)n4)CCC(O)CC3)nc2)n1 (single isomer, unassigned) [Example P227, 1-(2-(cyclopropanesulfonamido)pyrimidin-4-yl)-N-(5-(6-ethoxypyrazin-2-yl)pyridin-2-yl)-4-hydroxycyclohexanecarboxamide] | +++ (>60 fold (+++))
CCOc1cncc(-c2ccc(NC(=O)C3(c4ccnc(NS(=O)(=O)C5CC5)n4)CCC(N(C)C)CC3)nc2)n1 (single isomer, unassigned) [Example P230, 1-(2-(cyclopropanesulfonamido)pyrimidin-4-yl)-4-(dimethylamino)-N-(5-(6-ethoxypyrazin-2-yl)pyridin-2-yl)cyclohexane-1-carboxamide] | +++ (>60 fold (+++))
